In US9045393B2, “Derivatives of 3.5-seco-4-norcholestane and use thereof” (TROPHOS, priority 2004, dated 2015):

Key:
rat motoneurons = experiment: in vitro model of trophic deprivation of rat motoneurons (survival, calcein fluorescence); type: cell-based; conditions: 3 days in basal medium, compared with medium supplemented with neurotrophic factors, ratio greater than 0 = positive effect
From the text: Useful reference may be made to the WO 0142784 Patent Application of the applicant on the cultivation of spinal cord motoneurons.
The spinal cord of rat E14 embryos is dissected and the ventral portion is dissociated by trituration after trypsination. The motoneurons are separated from the other spinal cells by a known method (Camu et al., 1993, Purification of spinal motoneurons from chicken and rat embryos by immunopanning. in “Immunoselection Strategies for Neural cell culture”, Neuroprotocols: A companion to Methods in Neurosciences 2, 191-199; Henderson et al., 1993. Neutrophins promote motor neuron survival and are present in embryonic limb bud. Nature 363 (6426): 266-70). The cells are centrifuged on a density gradient. Motoneurons are enriched in the fraction of large cells (the less dense cells). The cells of this fraction are incubated with an anti-p75 antibody, a surface antigen present on motoneurons. Secondary antibodies coupled with magnetic beads are added and the mixture of cells is passed through a column in a magnet (Arce et al., 1999). Only the motoneurons are retained: their purity is of the order of 90%.
The motoneurons are sown with low density in culture wells on a substrate of polyornithine-laminin in a neurobasal medium supplemented according to Raoul et al., 1999, Programmed cell death of embryonic motoneurons triggered through the Fas death receptor. J. Cell. Biol. 147(5): 1049-62. Negative controls (absence of trophic factors) and positive controls (in the presence of BDNF (Brain-Derived Neurotrophic Factor) at 1 ng/mL, GDNF (Glial-Derived Neurotrophic Factor) at 1 ng/mL, and CNTF (Ciliary Neurotrophic Factor) at 10 ng/mL, marketed by the US company PEPROTECH, Inc. and the Sigma-Aldrich company), are included in each series.
The compounds to be tested are added 60 minutes after sowing and the cultures are maintained at 37° C. under 5% CO2 for 3 days.
The motoneurons have a spontaneous tendency of dying in the absence of neurotrophic factors (Pettmann and Henderson, 1998, Neuronal cell death. Neuron 20(4): 633-47). After 3 days, survival is evaluated by measuring fluorescence after incubating the cells in the presence of calcein which becomes fluorescent in living cells.
After 3 days in culture at 37° C., under 5% CO2 and in saturating humidity, up to 50% of the initially sown motoneurons survive in the medium supplemented with neurotrophic factors, while less than 15% of the motoneurons survive in a basal medium alone.
The activity of the compounds to be tested was evaluated by their capability of preventing death of motoneurons when they are added to the neurobasal medium as compared with survival of motoneurons in a medium supplemented with neurotrophic factors.
This survival rate is expressed by a number, the ratio. If the ratio is greater than 0, the effect of the compounds is positive on the survival of the motoneurons.

[1] = Toxicological study in mice; type: in vivo; conditions: intra-peritoneal route, 30 mg/kg/day, daily administration up to 14 days
[2] = system: motoneurons of the facial nucleus; experiment: axotomy of the facial nerve in newborn rats, count of motoneurons of the facial nucleus; type: in vivo, rat; conditions: axotomized newborn rats, treated orally, seven days after section

Compound	Ratio (survival rate of the motoneurons) (rat motoneurons; concentration 3 μM)	further results
CNC(=O)CCC1(C)C(=NO)CCC2C1CCC1(C)C(C(C)CCCC(C)C)CCC21 (stereo not shown) [Compound 1, 3,5-seco-4-nor-cholestan-5-one oxime-3-methyl-amide]	0.4	
CC(C)CCCC(C)C1CCC2C3CCC(=NO)C(C)(CCC(=O)O)C3CCC12C (stereo not shown) [Compound 8, 3,5-seco-4-nor-cholestan-5-one oxime-3-oic acid]	0.4	
CON=C1CC[C@H]2[C@@H]3CC[C@H]([C@H](C)CCCC(C)C)[C@@]3(C)CC[C@@H]2[C@@]1(C)CCCO [Compound 6, 3,5-seco-4-nor-cholestan-5-one methyloxime-3-ol]	0.4	
CC(C)CCCC(C)C1CCC2C3CCC(=O)C(C)(CCC(=O)O)C3CCC12C (stereo not shown) [Compound 14, 3,5-seco-4-nor-cholestan-5-one-3-oic acid]		Ratio (survival rate of the motoneurons) (rat motoneurons; concentration 10 μM): 0.4
CC(C)CCCC(C)C1CCC2C3CCC(=NOCC(=O)O)C(C)(CCCO)C3CCC12C (stereo not shown) [Compound 7, 3,5-seco-4-nor-cholestan-5-one carboxymethyl-oxime-3-ol]	0.4	
3,5-seco-4-nor-cholestan-5-one-3-methyl ketone [Compound 13]	0.7	
CC(C)CCCC(C)C1CCC2C3CCC(=NO)C(C)(CCC=NO)C3CCC12C (stereo not shown) [Compound 12, 3,5-seco-4-nor-cholestan-5-one oxime-3-one oxime]	0.7	
CC(C)CCCC(C)C1CCC2C3CCC(=NO)C(C)(CCC(C)(C)O)C3CCC12C (stereo not shown) [Compound 3, 3,5-seco-4-nor-cholestan-5-one oxime-3-dimethyl alcohol]	0.7	toxicity [1]: did not show any significant toxicity; increase of survival of the motoneurons of the facial nucleus ([2]; dose of 10 mg/kg): up to 25%
CC(C)CCC[C@@H](C)[C@H]1CC[C@H]2[C@@H]3CC/C(=N\O)[C@](C)(CCCO)[C@H]3CC[C@]12C [Compound 11, 3,5-seco-4-nor-cholestan-5-one oxime-3-ol]	0.8	toxicity [1]: did not show any significant toxicity; increase of survival of the motoneurons of the facial nucleus ([2]; dose between 3 and 30 mg/kg, as compared with non-sectioned nerve): up to 40%
3,5-seco-4-nor-cholestan-5-one oxime-3-methyl alcohol [Compound 4]	0.5	increase of survival of the motoneurons of the facial nucleus ([2]; dose of 30 mg/kg): up to 30%
CC(C)CCCC(C)C1CCC2C3CCC(=O)C(C)(CCC(C)(C)O)C3CCC12C (stereo not shown) [Compound 2, 3,5-seco-4-nor-cholestan-5-one-3-dimethyl alcohol]	0.5	
CC(C)CCCC(C)C1CCC2C3CCC(=O)C(C)(CCCO)C3CCC12C (stereo not shown) [Compound 10, 3,5-seco-4-nor-cholestan-5-one-3-ol]	0.6	
CC(C)CCCC(C)C1CCC2C3CCC(O)C(C)(CCCO)C3CCC12C (stereo not shown) [Compound 9, 3,5-seco-4-nor-cholestane-3,5-diol]	0.4	
CNCCCC1(C)C(=NO)CCC2C1CCC1(C)C(C(C)CCCC(C)C)CCC21 (stereo not shown) [Compound 5, 3,5-seco-4-nor-cholestan-5-one oxime-3-methyl-amine]	0.3	
